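Results reflect a 48-hour exposure of cells in 96-well plates to compound at five concentrations. Abbreviation: GI50, concentration required for 50% inhibition of growth.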 Active and inactive are the calls of the source. Cut-off read from the data, not from the text of the source: active = GI50 up to about 1.1 µM and inactive = higher.
Legend:
Test in all cases: NCI anticancer screen, dose series, 48 h
U-251 = system: U-251
CCRF-CEM = system: CCRF-CEM
COLO 205 = system: COLO 205
SK-MEL-2 = system: SK-MEL-2
SR = system: SR
SK-OV-3 = system: SK-OV-3
MOLT-4 = system: MOLT-4
K562 = system: K562
SK-MEL-28 = system: SK-MEL-28
SF-295 = system: SF-295
SN12C = system: SN12C
RPMI-8226 = system: RPMI-8226
TK-10 = system: TK-10
PC-3 = system: PC-3
UO-31 = system: UO-31
MDA-MB-435 = system: MDA-MB-435
BT-549 = system: BT-549
NCI-H226 = system: NCI-H226
HL-60 = system: HL-60
OVCAR-5 = system: OVCAR-5
EKVX = system: EKVX
786-0 = system: 786-0
NCI-H23 = system: NCI-H23
OVCAR-8 = system: OVCAR-8
SF-539 = system: SF-539
SNB-75 = system: SNB-75
RXF 393 = system: RXF 393
Malme-3M = system: Malme-3M
MDA-N = system: MDA-N
HCT-116 = system: HCT-116
KM12 = system: KM12
HOP-92 = system: HOP-92
DU-145 = system: DU-145
IGROV-1 = system: IGROV-1
NCI/ADR-RES = system: NCI/ADR-RES
SK-MEL-5 = system: SK-MEL-5
SNB-19 = system: SNB-19
MCF7 = system: MCF7
OVCAR-4 = system: OVCAR-4
A498 = system: A498
SF-268 = system: SF-268
M14 = system: M14
UACC-62 = system: UACC-62
LOX IMVI = system: LOX IMVI
UACC-257 = system: UACC-257
MDA-MB-231 = system: MDA-MB-231
HT-29 = system: HT-29
ACHN = system: ACHN
Hs-578T = system: Hs-578T
T47D = system: T47D
NCI-H522 = system: NCI-H522
NCI-H460 = system: NCI-H460
HOP-62 = system: HOP-62
A549 = system: A549
HCT-15 = system: HCT-15
OVCAR-3 = system: OVCAR-3
HCC 2998 = system: HCC 2998
SW-620 = system: SW-620
CAKI-1 = system: CAKI-1
LXFL 529 = system: LXFL 529
SNB-78 = system: SNB-78
M19-MEL = system: M19-MEL
DLD-1 = system: DLD-1
KM-20L2 = system: KM-20L2
HOP-18 = system: HOP-18

In the case of `COc1cccc(C2c3cc4c(cc3OC(N3CCOCC3)C2C)OCO4)c1O` (centres undefined), the GI50 (U-251) is reported as 0.38 µM (active), the GI50 (CCRF-CEM) is reported as 3.28 µM (inactive) and the GI50 (COLO 205) is reported as 4.28 µM (inactive). For the same compound, the GI50 (SK-MEL-2) was 7.1 µM (inactive), the GI50 (SR) was 1.23 µM (inactive) and the GI50 (SK-OV-3) was 5.56 µM (inactive). The GI50 (MOLT-4) was 4.02 µM (inactive), the GI50 (K562) was 3.06 µM (inactive) and the GI50 (SK-MEL-28) was 10.9 µM (inactive). For the same compound, the GI50 (SF-295) was 3.64 µM (inactive), the GI50 (SN12C) was 6.59 µM (inactive) and the GI50 (RPMI-8226) was 2.83 µM (inactive). The GI50 (TK-10) was 8.24 µM (inactive), the GI50 (PC-3) was 4.7 µM (inactive) and the GI50 (UO-31) was 8.3 µM (inactive). The GI50 (MDA-MB-435) was 1.24 µM (inactive), the GI50 (BT-549) was 13.9 µM (inactive) and the GI50 (NCI-H226) was 4.46 µM (inactive). For the same compound, the GI50 (HL-60) was 2.26 µM (inactive), the GI50 (OVCAR-5) was 7.46 µM (inactive) and the GI50 (EKVX) was 9.14 µM (inactive). The GI50 (786-0) was 5.6 µM (inactive), the GI50 (NCI-H23) was 6.73 µM (inactive) and the GI50 (OVCAR-8) was 6.59 µM (inactive). For the same compound, the GI50 (SF-539) was 2.69 µM (inactive), the GI50 (SNB-75) was 7.29 µM (inactive) and the GI50 (RXF 393) was 2.13 µM (inactive). The GI50 (Malme-3M) was 4.99 µM (inactive), the GI50 (MDA-N) was 1.03 µM (active) and the GI50 (HCT-116) was 3.84 µM (inactive). For the same compound, the GI50 (KM12) was 3.48 µM (inactive), the GI50 (HOP-92) was 12.1 µM (inactive) and the GI50 (DU-145) was 4.43 µM (inactive). For the same compound, the GI50 (IGROV-1) was 6.19 µM (inactive), the GI50 (NCI/ADR-RES) was 7.21 µM (inactive) and the GI50 (SK-MEL-5) was 3.6 µM (inactive). For the same compound, the GI50 (SNB-19) was 3.44 µM (inactive), the GI50 (MCF7) was 5.14 µM (inactive) and the GI50 (OVCAR-4) was 9.86 µM (inactive). For the same compound, the GI50 (A498) was 6.27 µM (inactive), the GI50 (SF-268) was 6.89 µM (inactive) and the GI50 (M14) was 4.6 µM (inactive). The GI50 (UACC-62) was 4.53 µM (inactive), the GI50 (LOX IMVI) was 5.31 µM (inactive) and the GI50 (UACC-257) was 9.14 µM (inactive). For the same compound, the GI50 (MDA-MB-231) was 11.6 µM (inactive), the GI50 (HT-29) was 4.02 µM (inactive) and the GI50 (ACHN) was 10.1 µM (inactive). The GI50 (Hs-578T) was 1.77 µM (inactive), the GI50 (T47D) was 4.48 µM (inactive) and the GI50 (NCI-H522) was 2.9 µM (inactive). The GI50 (NCI-H460) was 3.55 µM (inactive), the GI50 (HOP-62) was 4.27 µM (inactive) and the GI50 (A549) was 4.82 µM (inactive). For the same compound, the GI50 (HCT-15) was 3.32 µM, the GI50 (OVCAR-3) was 3.64 µM (inactive) and the GI50 (HCC 2998) was 7.23 µM (inactive). The GI50 (SW-620) was 3.87 µM (inactive) and the GI50 (CAKI-1) was 2.66 µM (inactive).
With `COC(=O)/C(=N\Nc1nc(S)nn1N)C(C#N)c1ccccc1` (centres undefined) the GI50 (U-251) was > 100 µM (inactive), the GI50 (CCRF-CEM) was > 100 µM (inactive) and the GI50 (COLO 205) was > 100 µM (inactive). For the same compound, the GI50 (SK-MEL-2) was > 100 µM (inactive), the GI50 (SK-OV-3) was > 100 µM (inactive) and the GI50 (MOLT-4) was > 100 µM (inactive). For the same compound, the GI50 (K562) was > 100 µM (inactive), the GI50 (SK-MEL-28) was > 100 µM (inactive) and the GI50 (SN12C) was > 100 µM (inactive). For the same compound, the GI50 (RPMI-8226) was > 100 µM (inactive), the GI50 (TK-10) was > 100 µM (inactive) and the GI50 (LXFL 529) was > 100 µM (inactive). The GI50 (UO-31) was > 100 µM (inactive), the GI50 (NCI-H226) was > 100 µM (inactive) and the GI50 (HL-60) was > 100 µM (inactive). The GI50 (OVCAR-5) was > 100 µM (inactive), the GI50 (EKVX) was > 100 µM (inactive) and the GI50 (786-0) was > 100 µM (inactive). For the same compound, the GI50 (SNB-78) was > 100 µM (inactive), the GI50 (NCI-H23) was > 100 µM (inactive) and the GI50 (OVCAR-8) was > 100 µM (inactive). The GI50 (M19-MEL) was > 100 µM (inactive), the GI50 (SNB-75) was > 100 µM (inactive) and the GI50 (RXF 393) was > 100 µM (inactive). The GI50 (Malme-3M) was > 100 µM (inactive), the GI50 (HCT-116) was > 100 µM (inactive) and the GI50 (DLD-1) was > 100 µM (inactive). For the same compound, the GI50 (KM12) was > 100 µM (inactive), the GI50 (IGROV-1) was > 100 µM (inactive) and the GI50 (SK-MEL-5) was > 100 µM (inactive). For the same compound, the GI50 (SNB-19) was > 100 µM (inactive), the GI50 (KM-20L2) was > 100 µM (inactive) and the GI50 (OVCAR-4) was > 100 µM (inactive). The GI50 (A498) was > 100 µM (inactive), the GI50 (SF-268) was > 100 µM (inactive) and the GI50 (M14) was > 100 µM (inactive). For the same compound, the GI50 (UACC-62) was > 100 µM (inactive), the GI50 (LOX IMVI) was > 100 µM (inactive) and the GI50 (UACC-257) was > 100 µM (inactive). For the same compound, the GI50 (HT-29) was > 100 µM (inactive), the GI50 (ACHN) was > 100 µM (inactive) and the GI50 (HOP-18) was > 100 µM (inactive). The GI50 (NCI-H522) was > 100 µM (inactive), the GI50 (NCI-H460) was > 100 µM (inactive) and the GI50 (HOP-62) was > 100 µM (inactive). For the same compound, the GI50 (A549) was > 100 µM (inactive), the GI50 (HCT-15) was over 100 µM and the GI50 (OVCAR-3) was > 100 µM (inactive). The GI50 (HCC 2998) was > 100 µM (inactive) and the GI50 (SW-620) was > 100 µM (inactive).

Source: ChEMBL document CHEMBL1201862, “PubChem BioAssay data set” (2004)
